In patent US20080306054A1, “Pharmaceutical Compounds” (ASTEX THERAPEUTICS LIMITED, priority 2005, published 2008) one finds IC50 and Kd data, which are given here for 22 compounds.

Structures are written as SMILES.

One experiment deals with HCT116 cell line. The experiment is described as follows: Anti-proliferative activity, Alamar Blue assay. In kind it is cell-based. Particulars: HCT-116, human colon cancer cell line HCT116, 72 hours with compound, read-out: IC50 values against the HCT116 cell line. The method, then: The anti-proliferative activities of compounds of the invention can be determined by measuring the ability of the compounds to inhibition of cell growth in a number of cell lines such as the human colon cancer cell line HCT116. Inhibition of cell growth is measured using the Alamar Blue assay (Nociari, M. M, Shalev, A., Benias, P., Russo, C. Journal of Immunological Methods 1998, 213, 157-167). The method is based on the ability of viable cells to reduce resazurin to its fluorescent product resorufin. For each proliferation assay cells are plated onto 96 well plates and allowed to recover for 16 hours prior to the addition of inhibitor compounds for a further 72 hours. At the end of the incubation period 10% (v/v) Alamar Blue is added and incubated for a further 6 hours prior to determination of fluorescent product at […]. In the case of the non-proliferating cell assay cells are maintained at confluence for 96 hour prior to the addition of inhibitor compounds for a further 72 hours. The number of viable cells is determined by Alamar Blue assay as before. Cell lines can be obtained from the ECACC (European Collection of cell Cultures).

Experiment [1] has as its target T1, Human Hsp90α N-terminal domain (Homo sapiens, UniProt P07900).
T1 construct: purification of the Human Hsp90α N-terminal domain were performed according to published methods; made in house
The experiment is described as follows: Isothermal titration calorimetry (ITC). The format is binding. Particulars: pH 7.4. The method, then:
The ability of the compounds of the invention to bind to human Hsp90 proteins was determined using isothermal titration calorimetry.
Isothermal titration calorimetry (ITC) experiments were performed with a VP-ITC titration calorimeter (Microcal Inc., Northampton, Mass., USA). […] All solutions were filtered and degassed prior to a titration being carried out. The enthalpy change resulting from each injection of ligand was obtained through integration of the calorimetric signal. Data were analysed using Origin 7.0 (Microcal Software Inc., Northampton, Mass.). Heats of dilution were estimated using the final injections of each individual titration and subtracted before data fitting. Different ITC experimental formats were employed in order to obtain compound dissociation constants (Kd's) over a wide range of affinities. […] In this type of experiment the stoichiometry parameter (N) was locked at 1 for data fitting.
(In general: In ITC the heat of successive injections is recorded.)

For the compound `CC(C)c1cc(C(=O)N2CC[C@@H](O)C2)c(O)cc1O` (stereo in doubt) [Example 61, (2,4-dihydroxy-5-isopropyl-phenyl)-(3-hydroxy-pyrrolidin-1yl)-methanone], the 50% inhibitory concentration (IC50) in the experiment with HCT116 cell line was below 10 µM. Take `CC(C)c1cc(C(=O)N2CCOCC2)ccc1O` [Example 20, (4-Hydroxy-3-isopropyl-phenyl)-morpholin-4-yl-methanone]: in experiment [1], the dissociation constant (Kd) was below 1 µM. Compound `CC(C)c1cc(C(=O)N2CCOCC2)c(O)cc1O` [Example 29, (2,4-Dihydroxy-5-isopropyl-phenyl)-morpholin-4-yl-methanone] gave a Kd in experiment [1] below 1 µM. As for `CC(C)(C)c1cc(C(=O)N2CCC(O)(c3ccccc3)CC2)ccc1O` [Example 37, (3-tert-Butyl-4-hydroxy-phenyl)-(4-hydroxy-4-phenyl-piperidin-1-yl)-methanone], in the experiment on HCT116 cell line, the concentration for half-maximal inhibition (IC50) was below 10 µM. Regarding `CC(C)(C)c1cc(C(=O)N2CCOCC2)c(O)cc1O` [Example 54, (5-tert-Butyl-2,4-dihydroxy-phenyl)-morpholin-4-yl-methanone], in the experiment with HCT116 cell line, the concentration for half-maximal inhibition (IC50) was below 10 µM. For the same compound, the Kd in experiment [1] is below 1 µM. Turning to `CC(C)c1cc(C(=O)N2CCOC(CO)C2)c(O)cc1O` (stereo not shown) [Example 55, (2,4-dihydroxy-5-isopropyl-phenyl)-(2-hydroxymethyl-morpholin-4yl)-methanone], the IC50 with HCT116 cell line was below 10 µM. The compound further came in with a Kd in experiment [1] below 1 µM. As to `CC(C)c1cc(C(=O)N2CCN(CCN(C)C)CC2)c(O)cc1O` [Example 56, (2,4-dihydroxy-5-isopropyl-phenyl)-[4-(2-dimethylamino-ethyl)-piperazin-1-yl]-methanone], the IC50 with HCT116 cell line was below 10 µM. This compound also had a Kd in experiment [1] below 1 µM. For `CC(C)c1cc(C(=O)N2CCC(CCO)CC2)c(O)cc1O` [Example 57] the same measures were below 10 µM and below 1 µM.

Regarding `CC(C)c1cc(C(=O)N2CCC(CO)CC2)c(O)cc1O` [Example 58, (2,4-dihydroxy-5-isopropyl-phenyl)-(4-hydroxymethyl-piperidin-yl)-methanone], the half-inhibitory concentration (IC50) with HCT116 cell line is below 10 µM.

With `CC1CN(C(=O)c2cc(C(C)C)c(O)cc2O)CC(C)O1` (stereo not shown) [Example 59, (2,4-dihydroxy-5-isopropyl-phenyl)-(2,6-dimethyl-morpholin-4-yl)-methanone], the IC50 with HCT116 cell line is below 10 µM. With `CCOC(=O)CC1CCN(C(=O)c2cc(C(C)C)c(O)cc2O)CC1` [Example 60, [1-(2,4-dihydroxy-5-isopropyl-benzoyl)-piperidin-4-yl)-acetic acidethyl ester], the IC50 in the experiment on HCT116 cell line is below 10 µM. As to `CNC(=O)CN(C(=O)c1cc(C(C)C)c(O)cc1O)c1ccc(F)cc1` [Example 62, N-(4-fluoro-phenyl)-2,4-dihydroxy-5-isopropyl-N-methylcarbamoylmethyl-benzamide], the IC50 in the experiment on HCT116 cell line was below 10 µM. For `CNC(=O)CN(C(=O)c1cc(C(C)C)c(O)cc1O)c1ccc(CN2CCOCC2)cc1` [Example 63, 2,4-dihydroxy-5-isopropyl-N-methylcarbamoylmethyl-N-(4-morpholin-4-ylmethyl-phenyl)-benzamide], the IC50 in the experiment with HCT116 cell line is below 10 µM. Take `CC(C)c1cc(C(=O)N(C)c2ccc(CN3CCOCC3)cc2)c(O)cc1O` [Example 64, 2,4-dihydroxy-5-isopropyl-N-methyl-N-(4-morpholin-4-yl-methyl-phenyl)-benzamide]: in the experiment with HCT116 cell line, the IC50 was below 10 µM. `CC(C)c1cc(C(=O)N(Cc2ccccc2)c2ccc(CN3CCOCC3)cc2)c(O)cc1O` [Example 65, N-benzyl-2,4-dihydroxy-5-isopropyl-N-(4-morpholin-4-ylmethyl-phenyl)-benzamide]: in the experiment on HCT116 cell line, the IC50 is below 10 µM. The Kd in experiment [1] is below 1 µM.

As to `CC(C)c1cc(C(=O)N2CCN(C)CC2)c(O)cc1O` [Example 66, (2,4-dihydroxy-5-isopropyl-phenyl)-(4-methyl-piperazin-1-yl)-methanone], the IC50 with HCT116 cell line was below 10 µM. The same measure, in the same setting: then `CC(C)c1cc(C(=O)N2CCS(=O)(=O)CC2)c(O)cc1O` [Example 68, (2,4-dihydroxy-5-isopropyl-phenyl)-(1,1-dioxo-1lambda*6*-thiomorpholin-4-yl)-methanone], with below 10 µM. With `CC(C)c1cc(C(=O)N2CCN(C(=O)OC(C)(C)C)CC2)c(O)cc1O` [Example 69, 4-(2,4-dihydroxy-5-isopropyl-benzoyl)-piperazine-1-carboxylic acidtert-butyl ester], the IC50 in the experiment with HCT116 cell line is below 10 µM. For the compound `CC(C)c1cc(C(=O)N(C)c2ccc(F)cc2)c(O)cc1O` [Example 70, N-(4-fluoro-phenyl)-2,4-dihydroxy-5-isopropyl-N-methyl-benzamide], in the experiment on HCT116 cell line, the IC50 is below 10 µM. With `CCN(C(=O)c1cc(C(C)C)c(O)cc1O)c1ccc(F)cc1` [Example 71, N-ethyl-N-(4-fluoro-phenyl)-2,4-dihydroxy-5-isopropyl-benzamide], the half-inhibitory concentration (IC50) in the experiment with HCT116 cell line is below 10 µM. Regarding `CC(C)c1cc(C(=O)N(CCC#N)c2ccc(F)cc2)c(O)cc1O` [Example 72, N-(2-cyano-ethyl)-N-(4-fluoro-phenyl)-2,4-dihydroxy-5-isopropyl-benzamide], in the experiment on HCT116 cell line, the IC50 was below 10 µM. Consider `CC(C)c1cc(C(=O)N(c2ccc(F)cc2)C2CCOCC2)c(O)cc1O` [Example 73, N-(4-fluoro-phenyl)-2,4-dihydroxy-5-isopropyl-N-(tetrahydro-pyran-4-yl)-benzamide], for which the IC50 in the experiment with HCT116 cell line is below 10 µM. In experiment [1], the Kd was below 1 µM.

As a reminder, the IC50 is the concentration that gives 50% inhibition. A word on the Kd: it is the concentration at which binding is half-saturated. A higher Kd goes with weaker binding.
